# Legend:
# Staphylococcus aureus [1] = assay: Antibacterial activity against Vancomycin-resistant Staphylococcus aureus 4 assessed as inhibition of bacterial growth incubated for 18 to 24 hrs by CLSI microbroth dilution method; assay type: functional; conditions: time 18-24 hrs
# Enterococcus [2] = assay: Potency index, ratio of Vancomycin MIC to test compound MIC for antibacterial activity against Vancomycin-resistant Enterococci ATCC 51575; assay type: functional
# Staphylococcus aureus [3] = assay: Antibacterial activity against Methicillin-resistant Staphylococcus aureus ATCC 33591 assessed as inhibition of bacterial growth incubated for 18 to 24 hrs by CLSI microbroth dilution method; assay type: functional; conditions: time 18-24 hrs
# Enterococcus [4] = assay: Antibacterial activity against Vancomycin-resistant Enterococci ATCC 51559 assessed as inhibition of bacterial growth incubated for 18 to 24 hrs by CLSI microbroth dilution method; assay type: functional; conditions: time 18-24 hrs
# Enterococcus [5] = assay: Antibacterial activity against Vancomycin-resistant Enterococci NR30909 assessed as inhibition of bacterial growth incubated for 18 to 24 hrs by CLSI microbroth dilution method; assay type: functional; conditions: time 18-24 hrs
# Enterococcus [6] = assay: Antibacterial activity against Vancomycin-resistant Enterococci ATCC 51575 assessed as inhibition of bacterial growth incubated for 18 to 24 hrs by CLSI microbroth dilution method; assay type: functional; conditions: time 18-24 hrs
# Staphylococcus aureus [7] = assay: Potency index, ratio of Vancomycin MIC to test compound MIC for antibacterial activity against Vancomycin-resistant Staphylococcus aureus 4; assay type: functional
# Staphylococcus aureus [8] = assay: Potency index, ratio of Vancomycin MIC to test compound MIC for antibacterial activity against Vancomycin-resistant Staphylococcus aureus 1; assay type: functional
# Enterococcus [9] = assay: Antibacterial activity against Vancomycin-resistant Enterococci NR30903 assessed as inhibition of bacterial growth incubated for 18 to 24 hrs by CLSI microbroth dilution method; assay type: functional; conditions: time 18-24 hrs
# Staphylococcus aureus [10] = assay: Antibacterial activity against Vancomycin-resistant Staphylococcus aureus 12 assessed as inhibition of bacterial growth incubated for 18 to 24 hrs by CLSI microbroth dilution method; assay type: functional; conditions: time 18-24 hrs
# Enterococcus [11] = assay: Potency index, ratio of Vancomycin MIC to test compound MIC for antibacterial activity against Vancomycin-resistant Enterococci ATCC 51559; assay type: functional
# [12] = Induction of hemolysis in human erythrocytes incubated for 1 hr by microtiter plater reader analysis; assay type: toxicity, cell-based, Erythrocyte
# Enterococcus [13] = assay: Potency index, ratio of Vancomycin MIC to test compound MIC for antibacterial activity against Vancomycin-resistant Enterococci NR30903; assay type: functional, NR 30903
# Staphylococcus aureus [14] = assay: Antibacterial activity against Vancomycin-resistant Staphylococcus aureus 1 assessed as inhibition of bacterial growth incubated for 18 to 24 hrs by CLSI microbroth dilution method; assay type: functional; conditions: time 18-24 hrs
# Enterococcus [15] = assay: Potency index, ratio of Vancomycin MIC to test compound MIC for antibacterial activity against Vancomycin-resistant Enterococci NR30909; assay type: functional, NR 30909
# Staphylococcus aureus [16] = assay: Potency index, ratio of Vancomycin MIC to test compound MIC for antibacterial activity against Vancomycin-resistant Staphylococcus aureus 12; assay type: functional
# [17] = Induction of hemolysis in human erythrocytes at 250 uM incubated for 1 hr by microtiter plater reader analysis; assay type: toxicity, cell-based, Erythrocyte; conditions: read-out: Activity
Structure (SMILES),MIC (Staphylococcus aureus [1]) [µM],Ratio (Enterococcus [2]),MIC (Staphylococcus aureus [3]) [µM],MIC (Enterococcus [4]) [µM],MIC (Enterococcus [5]) [µM],MIC (Enterococcus [6]) [µM],Ratio (Staphylococcus aureus [7]),Ratio (Staphylococcus aureus [8]),MIC (Enterococcus [9]) [µM],MIC (Staphylococcus aureus [10]) [µM],Ratio (Enterococcus [11]),HC50 at 1 h [12] [µM],Ratio (Enterococcus [13]),MIC (Staphylococcus aureus [14]) [µM],Ratio (Enterococcus [15]),Ratio (Staphylococcus aureus [16]),"hemolysis at 1 h, 250 µM [17] [%]"
CCCCCCCCCCCCCCNC(=O)C[N+](C)(C)CCCNC(=O)c1ccc(CN[C@@]2(C)C[C@H](O[C@H]3[C@H](Oc4c5cc6cc4Oc4ccc(cc4Cl)[C@@H](O)[C@@H](NC(=O)[C@@H](CC(C)C)NC)C(=O)N[C@@H](CC(N)=O)C(=O)N[C@H]6C(=O)N[C@H]4C(=O)N[C@H](C(=O)N[C@H](C(=O)O)c6cc(O)cc(O)c6-c6cc4ccc6O)[C@H](O)c4ccc(c(Cl)c4)O5)O[C@H](CO)[C@@H](O)[C@@H]3O)O[C@@H](C)[C@H]2O)cc1,1.8,780,1.8,1.8,0.9,1.8,780,780,0.9,1.8,780,35,780,1.8,780,780,–
CCCCCCCCNC(=O)C[N+](C)(C)CCCNC(=O)c1ccc(CN[C@@]2(C)C[C@H](O[C@H]3[C@H](Oc4c5cc6cc4Oc4ccc(cc4Cl)[C@@H](O)[C@@H](NC(=O)[C@@H](CC(C)C)NC)C(=O)N[C@@H](CC(N)=O)C(=O)N[C@H]6C(=O)N[C@H]4C(=O)N[C@H](C(=O)N[C@H](C(=O)O)c6cc(O)cc(O)c6-c6cc4ccc6O)[C@H](O)c4ccc(c(Cl)c4)O5)O[C@H](CO)[C@@H](O)[C@@H]3O)O[C@@H](C)[C@H]2O)cc1,3.7,750,0.4,14.7,0.9,14.7,750,750,0.9,3.7,750,> 250,750,1.8,750,750,1
CCCCCCCCCCCCCCNC(=O)c1ccc(CN[C@@]2(C)C[C@H](O[C@H]3[C@H](Oc4c5cc6cc4Oc4ccc(cc4Cl)[C@@H](O)[C@@H](NC(=O)[C@@H](CC(C)C)NC)C(=O)N[C@@H](CC(N)=O)C(=O)N[C@H]6C(=O)N[C@H]4C(=O)N[C@H](C(=O)N[C@H](C(=O)O)c6cc(O)cc(O)c6-c6cc4ccc6O)[C@H](O)c4ccc(c(Cl)c4)O5)O[C@H](CO)[C@@H](O)[C@@H]3O)O[C@@H](C)[C@H]2O)cc1,4,–,4,4,4,4,–,–,2,4,–,27.5,–,8,–,–,–
CN[C@H](CC(C)C)C(=O)N[C@H]1C(=O)N[C@@H](CC(N)=O)C(=O)N[C@H]2C(=O)N[C@H]3C(=O)N[C@H](C(=O)N[C@H](C(=O)O)c4cc(O)cc(O)c4-c4cc3ccc4O)[C@H](O)c3ccc(c(Cl)c3)Oc3cc2cc(c3O[C@@H]2O[C@H](CO)[C@@H](O)[C@H](O)[C@H]2O[C@H]2C[C@](C)(NCc3ccc(-c4ccc(Cl)cc4)cc3)[C@H](O)[C@H](C)O2)Oc2ccc(cc2Cl)[C@H]1O,2.1,–,0.5,4.2,4.2,2.1,–,–,4.2,4.2,–,–,–,4.2,–,–,–
CCCCCCCCCCNC(=O)C[N+](C)(C)CCCNC(=O)c1ccc(C)cc1,–,–,–,> 40,> 40,> 40,–,–,> 40,–,–,–,–,–,–,–,–
CCCCCCCCCCNC(=O)c1ccc(CN[C@@]2(C)C[C@H](O[C@H]3[C@H](Oc4c5cc6cc4Oc4ccc(cc4Cl)[C@@H](O)[C@@H](NC(=O)[C@@H](CC(C)C)NC)C(=O)N[C@@H](CC(N)=O)C(=O)N[C@H]6C(=O)N[C@H]4C(=O)N[C@H](C(=O)N[C@H](C(=O)O)c6cc(O)cc(O)c6-c6cc4ccc6O)[C@H](O)c4ccc(c(Cl)c4)O5)O[C@H](CO)[C@@H](O)[C@@H]3O)O[C@@H](C)[C@H]2O)cc1,1,670,2,2,2,0.2,390,390,2,2,670,62.5,670,2,670,390,–
CCCCCCCCCCCCNC(=O)C[N+](C)(C)CCCNC(=O)c1ccc(CN[C@@]2(C)C[C@H](O[C@H]3[C@H](Oc4c5cc6cc4Oc4ccc(cc4Cl)[C@@H](O)[C@@H](NC(=O)[C@@H](CC(C)C)NC)C(=O)N[C@@H](CC(N)=O)C(=O)N[C@H]6C(=O)N[C@H]4C(=O)N[C@H](C(=O)N[C@H](C(=O)O)c6cc(O)cc(O)c6-c6cc4ccc6O)[C@H](O)c4ccc(c(Cl)c4)O5)O[C@H](CO)[C@@H](O)[C@@H]3O)O[C@@H](C)[C@H]2O)cc1,0.9,780,1.8,1.8,0.9,1.8,780,780,0.9,0.9,780,72,780,0.9,780,780,–
CN[C@H](CC(C)C)C(=O)N[C@H]1C(=O)N[C@@H](CC(N)=O)C(=O)N[C@H]2C(=O)N[C@H]3C(=O)N[C@H](C(=O)N[C@H](C(=O)O)c4cc(O)cc(O)c4-c4cc3ccc4O)[C@H](O)c3ccc(c(Cl)c3)Oc3cc2cc(c3O[C@@H]2O[C@H](CO)[C@@H](O)[C@H](O)[C@H]2O[C@H]2C[C@](C)(NCc3ccc(C(=O)NCCC[N+](C)(C)Cc4cccc5ccccc45)cc3)[C@H](O)[C@H](C)O2)Oc2ccc(cc2Cl)[C@H]1O,14.9,–,0.9,> 30,7.4,> 30,–,–,14.9,3.7,–,> 250,–,29.8,–,–,0
CN[C@H](CC(C)C)C(=O)N[C@H]1C(=O)N[C@@H](CC(N)=O)C(=O)N[C@H]2C(=O)N[C@H]3C(=O)N[C@H](C(=O)N[C@H](C(=O)O)c4cc(O)cc(O)c4-c4cc3ccc4O)[C@H](O)c3ccc(c(Cl)c3)Oc3cc2cc(c3O[C@@H]2O[C@H](CO)[C@@H](O)[C@H](O)[C@H]2O[C@H]2C[C@](C)(NCc3ccc(C(=O)NCCC[N+](C)(C)Cc4ccccc4)cc3)[C@H](O)[C@H](C)O2)Oc2ccc(cc2Cl)[C@H]1O,30.5,–,0.9,> 30,> 30,> 30,–,–,> 30,30.5,–,> 250,–,30.5,–,–,0
